These results are taken from ChEMBL document CHEMBL1799924, “Synthesis and activities of naphthalimide azoles as a new type of antibacterial and antifungal agents” (2011).

For one assay, the system named is Micrococcus luteus. Nature of the assay: Antibacterial activity against Micrococcus luteus by microbroth dilution method. The assay is classed as functional. (In general: In broth dilution the organism is exposed to a series of concentrations in liquid medium.)
The subject of a further assay is Candida. Nature of the assay: Antifungal activity against Candida mycoderma by microbroth dilution method. The assay is classed as functional.
A further assay concerns Escherichia coli. The assay is described as follows: Antibacterial activity against Escherichia coli JM 109 by microbroth dilution method. The assay is classed as functional.
Another assay has as its system Candida albicans. The assay is described as follows: Antifungal activity against Candida albicans ATCC 76615 by microbroth dilution method. The format is functional.
The test system of assay [1] is Staphylococcus aureus. Nature of the assay: Antibacterial activity against methicillin-resistant Staphylococcus aureus N 315 by microbroth dilution method. The assay is classed as functional.
The test system of assay [2] is Staphylococcus aureus. The assay is described as follows: Antibacterial activity against Staphylococcus aureus ATCC 25923 by microbroth dilution method. The assay is classed as functional.
Another assay deals with Pseudomonas aeruginosa. Nature of the assay: Antibacterial activity against Pseudomonas aeruginosa by microbroth dilution method. The assay is classed as functional.
In another assay the test system is Bacillus. The assay is described as follows: Antibacterial activity against Bacillus proteus by microbroth dilution method. The format is functional.
The subject of another assay is Salmonella typhi. The assay is described as follows: Antibacterial activity against Bacillus typhi by microbroth dilution method. The format is functional, Salmonella enterica subsp. enterica serovar Typhi. The following applies: Salmonella enterica.
For the next assay, the system named is Bacillus subtilis. The assay is described as follows: Antibacterial activity against Bacillus subtilis ATCC 6633 by microbroth dilution method. The assay is classed as functional.

Where only a bound is given, the exact number is not on record here.

As usually defined, the MIC is the lowest concentration that inhibits growth of the organism. A low value points to a more susceptible organism. On to `O=C1c2cccc3c(Br)ccc(c23)C(=O)N1CCCCCCn1cncn1`, for which the MIC against Micrococcus luteus, in the assay with Candida, in the assay on Escherichia coli, in the assay with Candida albicans, with Staphylococcus aureus [1] and against Staphylococcus aureus [2] was over 512 mg/L in each case. In addition, the MIC in the assay with Pseudomonas aeruginosa, against Bacillus, in the assay with Salmonella typhi and against Bacillus subtilis was over 512 mg/L each time.
Take `O=C1c2cccc3c(Br)ccc(c23)C(=O)N1CCCn1c[n+](Cc2ccc(F)cc2F)cn1.[Br-]`: the MIC against Micrococcus luteus turned out to be 8 mg/L; with Candida, 4 mg/L; against Escherichia coli, 4 mg/L; in the assay on Candida albicans it was 8 mg/L; in the assay with Staphylococcus aureus [1], 4 mg/L; with Staphylococcus aureus [2], 16 mg/L. In addition, the MIC with Pseudomonas aeruginosa was 1 mg/L; in the assay on Bacillus, 8 mg/L; against Salmonella typhi, 4 mg/L; against Bacillus subtilis, 4 mg/L.
